Results from ChEMBL document CHEMBL5321200, “Discovery of the GSH responsive "Y-PROTACs" targeting ALK and CDK4/6 as a potential treatment for cancer” (Eur J Med Chem, 2023).
Activity calls are given as the source filed them. No cut-off for these calls is given here.

Key:
[1] = test system: NCI-H3122; assay: Antiproliferative activity against human NCI-H3122 cells assessed as inhibition of cell growth incubated for 5 days in presence of 2-(4-(6-((6-acetyl-8-cyclopentyl-5-methyl-7-oxo-7,8-dihydropyrido[2,3-d]pyrimidin-2-yl)amino)pyridin-3-yl)piperazin-1-yl)-N-(2-mercaptoethyl)acetamide by MTT assay; type: functional, cell-based; conditions: NCI-H3122, 120 h
[2] = Toxicity in BALB/c nude mouse xenografted with human NCI-H3122 cells assessed as effect on visceral heart morphology at 50 mg/kg, IG administered once daily for 18 days and measured after 12 hrs of last dose by H and E staining based assay; type: organism-based; conditions: in vivo, po, 444 h
[3] = biological target: Protein cereblon/ALK tyrosine kinase receptor (Homo sapiens, UniProt Q96SW2+Q9UM73); assay: PROTAC activity at CRBN/ALK in human NCI-H3122 cells assessed as induction of ALK degradation incubated for 24 hrs by Western blot analysis; type: cell-based
Sequence of Protein cereblon/ALK tyrosine kinase receptor (Q9UM73 whole entry): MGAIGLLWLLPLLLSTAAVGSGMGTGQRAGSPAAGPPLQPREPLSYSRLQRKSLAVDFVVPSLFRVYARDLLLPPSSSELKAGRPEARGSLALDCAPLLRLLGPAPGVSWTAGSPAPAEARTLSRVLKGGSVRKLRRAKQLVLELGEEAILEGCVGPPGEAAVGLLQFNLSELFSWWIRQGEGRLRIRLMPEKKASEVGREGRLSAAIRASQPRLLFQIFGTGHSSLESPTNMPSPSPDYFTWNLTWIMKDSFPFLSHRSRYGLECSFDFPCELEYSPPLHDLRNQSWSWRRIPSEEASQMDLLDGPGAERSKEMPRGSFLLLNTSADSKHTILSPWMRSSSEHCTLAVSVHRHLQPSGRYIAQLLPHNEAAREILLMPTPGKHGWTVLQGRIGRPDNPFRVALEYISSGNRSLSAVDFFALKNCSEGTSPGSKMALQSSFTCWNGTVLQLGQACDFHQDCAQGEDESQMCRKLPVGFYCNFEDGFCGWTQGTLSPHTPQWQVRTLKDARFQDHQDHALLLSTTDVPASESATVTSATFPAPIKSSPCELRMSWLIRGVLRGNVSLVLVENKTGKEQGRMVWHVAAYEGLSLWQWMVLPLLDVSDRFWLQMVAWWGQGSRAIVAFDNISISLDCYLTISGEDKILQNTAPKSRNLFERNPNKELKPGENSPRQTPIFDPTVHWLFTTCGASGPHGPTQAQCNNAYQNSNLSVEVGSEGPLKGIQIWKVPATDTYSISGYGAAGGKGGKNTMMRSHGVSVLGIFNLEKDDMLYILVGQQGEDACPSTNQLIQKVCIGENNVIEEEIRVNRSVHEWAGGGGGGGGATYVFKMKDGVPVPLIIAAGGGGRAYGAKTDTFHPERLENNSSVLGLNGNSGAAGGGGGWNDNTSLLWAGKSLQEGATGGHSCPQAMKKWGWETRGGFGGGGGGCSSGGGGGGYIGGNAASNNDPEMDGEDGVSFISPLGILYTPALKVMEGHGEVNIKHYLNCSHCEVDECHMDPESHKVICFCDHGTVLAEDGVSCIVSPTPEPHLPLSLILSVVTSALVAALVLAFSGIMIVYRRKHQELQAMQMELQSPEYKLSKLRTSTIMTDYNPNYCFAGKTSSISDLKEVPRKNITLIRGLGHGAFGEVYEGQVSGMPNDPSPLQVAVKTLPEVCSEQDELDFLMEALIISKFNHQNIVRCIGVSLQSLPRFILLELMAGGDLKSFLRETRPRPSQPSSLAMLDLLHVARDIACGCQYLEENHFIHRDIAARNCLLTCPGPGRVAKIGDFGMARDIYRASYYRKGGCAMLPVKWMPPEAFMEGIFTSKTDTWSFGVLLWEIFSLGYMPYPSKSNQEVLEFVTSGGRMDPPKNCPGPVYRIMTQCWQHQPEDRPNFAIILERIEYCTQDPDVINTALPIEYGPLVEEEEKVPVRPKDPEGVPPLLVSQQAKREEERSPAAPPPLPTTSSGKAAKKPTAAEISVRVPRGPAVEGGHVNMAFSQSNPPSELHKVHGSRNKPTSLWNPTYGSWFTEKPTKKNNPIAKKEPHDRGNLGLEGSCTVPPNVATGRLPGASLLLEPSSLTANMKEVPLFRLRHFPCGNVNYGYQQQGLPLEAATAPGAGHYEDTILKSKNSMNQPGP
Sequence of Protein cereblon/ALK tyrosine kinase receptor (Q96SW2 whole entry): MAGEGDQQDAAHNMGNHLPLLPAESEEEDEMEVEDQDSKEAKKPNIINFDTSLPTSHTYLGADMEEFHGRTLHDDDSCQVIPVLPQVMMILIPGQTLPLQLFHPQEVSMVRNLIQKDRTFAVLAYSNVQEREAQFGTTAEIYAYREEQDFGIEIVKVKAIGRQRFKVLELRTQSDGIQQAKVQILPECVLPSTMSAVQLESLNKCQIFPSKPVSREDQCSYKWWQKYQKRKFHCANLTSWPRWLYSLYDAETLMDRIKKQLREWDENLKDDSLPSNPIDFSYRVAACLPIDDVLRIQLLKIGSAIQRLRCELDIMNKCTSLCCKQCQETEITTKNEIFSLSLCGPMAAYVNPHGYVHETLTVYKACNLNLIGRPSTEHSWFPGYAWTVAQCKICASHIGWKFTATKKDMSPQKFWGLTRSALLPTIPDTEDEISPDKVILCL

[4] = test system: NCI-H3122; assay: Antitumor activity against human NCI-H3122 cells xenografted in BALB/c nude mouse assessed as reduction in tumor volume at 50 mg/kg, IG administered once daily for 18 days and measured after 12 hrs of last dose; type: functional, organism-based; conditions: time 444.0 hrs
[5] = test system: NCI-H3122; assay: Antitumor activity against human NCI-H3122 cells xenografted in BALB/c nude mouse assessed as tumor growth inhibition at 50 mg/kg, IG administered once daily for 18 days and measured after 12 hrs of last dose relative to control; type: functional; conditions: NCI-H3122, po, time 444 hrs, read-out: TGI
[6] = Toxicity in BALB/c nude mouse xenografted with human NCI-H3122 cells assessed as effect on visceral lung morphology at 50 mg/kg, IG administered once daily for 18 days and measured after 12 hrs of last dose by H and E staining based assay; type: organism-based; conditions: in vivo, po, 444 h
[7] = Toxicity in BALB/c nude mouse xenografted with human NCI-H3122 cells assessed as effect on spleen function at 50 mg/kg, IG administered once daily for 18 days by H and E staining based assay; type: organism-based; conditions: in vivo, po, 432 h, time 18 day
[8] = test system: NCI-H3122; assay: Antiproliferative activity against human NCI-H3122 cells assessed as inhibition of cell growth incubated for 5 days by MTT assay; type: functional, cell-based; conditions: NCI-H3122, 120 h
[9] = Toxicity in BALB/c nude mouse xenografted with human NCI-H3122 cells assessed as effect on heart function at 50 mg/kg, IG administered once daily for 18 days and measured after 12 hrs of last dose by H and E staining based assay; type: organism-based; conditions: in vivo, po, 444 h
[10] = Toxicity in BALB/c nude mouse xenografted with human NCI-H3122 cells assessed as tolerance at 25 to 50 mg/kg, IG administered once daily for 18 days; type: organism-based; conditions: in vivo, po, 432 h, dose 25-50 mg/kg, time 18 day
[11] = test system: NCI-H3122; assay: Antitumor activity against human NCI-H3122 cells xenografted in BALB/c nude mouse assessed as reduction in tumor weight at 50 mg/kg, IG administered once daily for 18 days and measured after 12 hrs of last dose; type: functional, organism-based; conditions: time 444.0 hrs
[12] = Toxicity in BALB/c nude mouse xenografted with human NCI-H3122 cells assessed as effect on liver function at 50 mg/kg, IG administered once daily for 18 days by H and E staining based assay; type: organism-based; conditions: in vivo, po, 432 h, time 18 day
[13] = test system: Mus musculus; assay: In vivo PROTAC activity at CRBN/EML4-ALK in BALB/c nude mouse xenografted with human NCI-H3122 cells assessed as reduction in EML4-ALK protein expression in tumor at 50 mg/kg, IG administered once daily for 18 days and measured after 12 hrs of last dose by immunohistochemical analysis; type: functional, organism-based; conditions: time 444.0 hrs
[14] = biological target: ALK tyrosine kinase receptor (Homo sapiens) (UniProt Q9UM73); assay: Inhibition of ALK (unknown origin) at 0.05 uM by LANCE Ultra TR-FRET assay relative to control
Sequence of ALK tyrosine kinase receptor (Homo sapiens) (Q9UM73 19-1620 limits assumed): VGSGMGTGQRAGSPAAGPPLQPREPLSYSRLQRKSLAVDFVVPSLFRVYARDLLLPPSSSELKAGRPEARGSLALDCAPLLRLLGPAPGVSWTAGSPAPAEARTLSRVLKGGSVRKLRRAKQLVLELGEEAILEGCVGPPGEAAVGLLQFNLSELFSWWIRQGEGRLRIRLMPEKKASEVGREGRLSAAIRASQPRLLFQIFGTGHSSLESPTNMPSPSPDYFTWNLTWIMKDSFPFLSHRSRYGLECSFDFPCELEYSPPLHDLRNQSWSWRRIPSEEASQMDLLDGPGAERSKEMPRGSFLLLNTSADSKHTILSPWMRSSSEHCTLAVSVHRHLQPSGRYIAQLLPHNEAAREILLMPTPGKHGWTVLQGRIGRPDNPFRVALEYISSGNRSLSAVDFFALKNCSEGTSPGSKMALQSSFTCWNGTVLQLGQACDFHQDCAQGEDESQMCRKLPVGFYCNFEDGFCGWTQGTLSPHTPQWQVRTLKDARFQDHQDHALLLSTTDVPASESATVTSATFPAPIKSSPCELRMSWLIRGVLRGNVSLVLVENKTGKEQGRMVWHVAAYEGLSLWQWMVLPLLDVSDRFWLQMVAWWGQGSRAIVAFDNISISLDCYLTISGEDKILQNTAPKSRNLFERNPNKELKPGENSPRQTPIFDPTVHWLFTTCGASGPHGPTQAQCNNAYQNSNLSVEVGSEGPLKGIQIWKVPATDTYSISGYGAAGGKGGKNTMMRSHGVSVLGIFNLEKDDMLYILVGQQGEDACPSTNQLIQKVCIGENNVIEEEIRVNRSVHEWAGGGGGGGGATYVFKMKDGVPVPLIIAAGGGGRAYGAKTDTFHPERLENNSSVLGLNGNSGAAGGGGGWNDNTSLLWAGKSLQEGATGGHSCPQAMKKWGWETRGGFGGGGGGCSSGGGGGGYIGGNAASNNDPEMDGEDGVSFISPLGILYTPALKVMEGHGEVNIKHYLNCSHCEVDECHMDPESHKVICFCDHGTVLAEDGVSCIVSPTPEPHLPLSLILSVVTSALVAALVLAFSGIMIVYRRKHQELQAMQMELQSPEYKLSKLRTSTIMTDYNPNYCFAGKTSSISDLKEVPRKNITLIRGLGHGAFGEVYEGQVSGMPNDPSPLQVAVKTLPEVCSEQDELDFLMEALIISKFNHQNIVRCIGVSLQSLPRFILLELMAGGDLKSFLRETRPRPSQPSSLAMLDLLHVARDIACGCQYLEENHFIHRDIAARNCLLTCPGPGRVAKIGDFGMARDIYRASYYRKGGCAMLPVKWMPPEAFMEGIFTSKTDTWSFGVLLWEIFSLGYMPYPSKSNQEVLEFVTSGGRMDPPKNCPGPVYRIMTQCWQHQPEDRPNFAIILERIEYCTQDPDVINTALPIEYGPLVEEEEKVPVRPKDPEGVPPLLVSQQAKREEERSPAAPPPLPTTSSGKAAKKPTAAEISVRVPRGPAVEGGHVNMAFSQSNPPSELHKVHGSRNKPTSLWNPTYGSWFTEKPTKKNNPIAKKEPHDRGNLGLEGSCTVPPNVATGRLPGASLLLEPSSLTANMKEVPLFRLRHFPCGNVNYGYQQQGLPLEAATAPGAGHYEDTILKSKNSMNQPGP

[15] = Toxicity in BALB/c nude mouse xenografted with human NCI-H3122 cells assessed as reduction in body weight at 25 to 50 mg/kg, IG administered once daily for 18 days; type: organism-based; conditions: in vivo, po, 432 h, dose 25-50 mg/kg, time 18 day
[16] = Toxicity in BALB/c nude mouse xenografted with human NCI-H3122 cells assessed as effect on visceral spleen morphology at 50 mg/kg, IG administered once daily for 18 days and measured after 12 hrs of last dose by H and E staining based assay; type: organism-based; conditions: in vivo, po, 444 h
[17] = Toxicity in BALB/c nude mouse xenografted with human NCI-H3122 cells assessed as effect on lung function at 50 mg/kg, IG administered once daily for 18 days by H and E staining based assay; type: organism-based; conditions: in vivo, po, 432 h, time 18 day
[18] = Toxicity in BALB/c nude mouse xenografted with human NCI-H3122 cells assessed as effect on visceral kidney morphology at 50 mg/kg, IG administered once daily for 18 days and measured after 12 hrs of last dose by H and E staining based assay; type: organism-based; conditions: in vivo, po, 444 h
[19] = biological target: ALK tyrosine kinase receptor (Homo sapiens) (UniProt Q9UM73); assay: Inhibition of ALK (unknown origin) at 1 uM by LANCE Ultra TR-FRET assay relative to control
[20] = Toxicity in BALB/c nude mouse xenografted with human NCI-H3122 cells assessed as effect on kidney function at 50 mg/kg, IG administered once daily for 18 days by H and E staining based assay; type: organism-based; conditions: in vivo, po, 432 h, time 18 day
[21] = Toxicity in BALB/c nude mouse xenografted with human NCI-H3122 cells assessed as effect on visceral liver morphology at 50 mg/kg, IG administered once daily for 18 days and measured after 12 hrs of last dose by H and E staining based assay; type: organism-based; conditions: in vivo, po, 444 h

In the case of `Cc1cc(Nc2ncc(Cl)c(Nc3ccccc3S(=O)(=O)C(C)C)n2)c(OC(C)C)cc1C1CCN(C(=O)CCCCCCC(=O)N(CCS)CC(=O)NCCNc2cccc3c2C(=O)N(C2CCC(=O)NC2=O)C3=O)CC1` (stereo unspecified), the IC50 [1] is reported as 190 nM, the Activity [2] is reported as “Non-Toxic” and the EC50 [3] is reported as 690 nM. The Activity [4] was “Active”, the inhibition in vivo at 50 mg/kg [5] was 51.1% and the Activity [6] was “Non-Toxic”. For the same compound, the Activity [7] was “Non-Toxic”, the IC50 [8] was 380 nM and the Activity [9] was “Non-Toxic”. The Activity [10] was “Non-Toxic”, the Activity [11] was “Active” and the Activity [12] was “Non-Toxic”. The Activity [13] was “Active”, the inhibition [14] was 82.2% and the Activity [15] was “Non-Toxic”. For the same compound, the Activity [16] was “Non-Toxic”, the Activity [17] was “Non-Toxic” and the Activity [18] was “Non-Toxic”. The inhibition [19] was 93%, the Activity [20] was “Non-Toxic” and the Activity [21] was “Non-Toxic”.
